Paper PMC3250956, “Functional characterization and analgesic effects of mixed cannabinoid receptor/T-type channel ligands” (Molecular Pain, 2011)

Legend:
formalin-induced pain = assay: Formalin test (formalin-induced nociception); format: in vivo, mice
Protocol: All experiments were conducted following the protocol approved by the Institutional Animal Care and Use Committee (protocol #M09130) and all efforts were made to minimize animal suffering. Male mice of C57BL/6J strain weighing 25~30 g, 10 weeks old were used. Animals were housed at a maximum number of five per cage (30 × 20 × 15 cm) with food and water ad libitum. They were kept in 12 h light/dark cycles (lights on at 7:00 a.m.) at a temperature of 23 ± 1°C. All manipulations were carried out between 11:00 am and 3:00 pm. […] Control animals received the same vehicle used to dilute the compounds. When drugs were delivered by intraperitoneal (i.p.) route, a constant volume of 10 ml/kg body weight was injected. When drugs were administered by intrathecal (i.t.) or intraplantar (i.pl.) routes, respectively volumes of 5 μl or 20 μl were injected. Appropriate vehicle-treated groups were also assessed simultaneously.
The formalin test is a widely used model that allows us to evaluate two different types of pain: neurogenic pain (phase 1) is caused by direct activation of nociceptive nerve terminals, while inflammatory pain (phase 2) is mediated by a combination of peripheral input and spinal cord sensitization. Animals received 20 μl of a formalin solution (1.25%) made up in PBS injected intraplantarly (i.pl.) in the ventral surface of the right hindpaw. Following i.pl. injection of formalin, the animals were immediately placed individually into observation chambers and the time spent licking or biting the injected paw was be recorded and considered as nociceptive response. We observed animals individually from 0-5 min (neurogenic phase) and 15-30 min (inflammatory phase).
Intrathecal injections were given to fully conscious mice using the method previously described by Hylden and Wilcox. Briefly, the animals were manually restrained, and a 30-gauge needle connected by a polyethylene tube to a 25 μl Hamilton syringe (Hamilton, Birmingham, UK) was inserted through the skin and between the vertebrae into the […] space of the L5-L6 spinal segments. Intrathecal injections were given over a period of 5 seconds.

Human CB2 [1] = target: T1, Human CB2 (Homo sapiens, UniProt P34972); assay: GTPγ[35S] functional assay, CHO cell membrane extracts; format: biochemical; parameters: expressed in transfected cells; host or cells: CHO cells (membrane extracts)
T1 sequence (P34972 whole entry): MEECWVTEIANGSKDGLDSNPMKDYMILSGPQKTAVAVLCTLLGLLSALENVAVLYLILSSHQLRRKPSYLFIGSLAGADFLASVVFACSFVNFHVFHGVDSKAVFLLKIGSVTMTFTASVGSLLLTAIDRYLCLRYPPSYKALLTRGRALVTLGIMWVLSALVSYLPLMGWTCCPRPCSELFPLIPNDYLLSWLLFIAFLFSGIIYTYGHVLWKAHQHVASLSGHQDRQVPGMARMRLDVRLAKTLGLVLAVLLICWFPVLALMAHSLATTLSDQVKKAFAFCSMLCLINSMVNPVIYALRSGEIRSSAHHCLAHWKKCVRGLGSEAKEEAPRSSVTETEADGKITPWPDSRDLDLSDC

Cav3.2 = target: T2, Cav3.2 (Homo sapiens, UniProt O95180); assay: Whole-cell patch-clamp on Cav3.2: concentration-response and steady-state inactivation; format: cell-based; conditions: 10 μM
T2 construct: expressed in transfected cells; host or cells: tsA-201 cells, transient calcium phosphate transfection
T2 sequence (O95180 whole entry): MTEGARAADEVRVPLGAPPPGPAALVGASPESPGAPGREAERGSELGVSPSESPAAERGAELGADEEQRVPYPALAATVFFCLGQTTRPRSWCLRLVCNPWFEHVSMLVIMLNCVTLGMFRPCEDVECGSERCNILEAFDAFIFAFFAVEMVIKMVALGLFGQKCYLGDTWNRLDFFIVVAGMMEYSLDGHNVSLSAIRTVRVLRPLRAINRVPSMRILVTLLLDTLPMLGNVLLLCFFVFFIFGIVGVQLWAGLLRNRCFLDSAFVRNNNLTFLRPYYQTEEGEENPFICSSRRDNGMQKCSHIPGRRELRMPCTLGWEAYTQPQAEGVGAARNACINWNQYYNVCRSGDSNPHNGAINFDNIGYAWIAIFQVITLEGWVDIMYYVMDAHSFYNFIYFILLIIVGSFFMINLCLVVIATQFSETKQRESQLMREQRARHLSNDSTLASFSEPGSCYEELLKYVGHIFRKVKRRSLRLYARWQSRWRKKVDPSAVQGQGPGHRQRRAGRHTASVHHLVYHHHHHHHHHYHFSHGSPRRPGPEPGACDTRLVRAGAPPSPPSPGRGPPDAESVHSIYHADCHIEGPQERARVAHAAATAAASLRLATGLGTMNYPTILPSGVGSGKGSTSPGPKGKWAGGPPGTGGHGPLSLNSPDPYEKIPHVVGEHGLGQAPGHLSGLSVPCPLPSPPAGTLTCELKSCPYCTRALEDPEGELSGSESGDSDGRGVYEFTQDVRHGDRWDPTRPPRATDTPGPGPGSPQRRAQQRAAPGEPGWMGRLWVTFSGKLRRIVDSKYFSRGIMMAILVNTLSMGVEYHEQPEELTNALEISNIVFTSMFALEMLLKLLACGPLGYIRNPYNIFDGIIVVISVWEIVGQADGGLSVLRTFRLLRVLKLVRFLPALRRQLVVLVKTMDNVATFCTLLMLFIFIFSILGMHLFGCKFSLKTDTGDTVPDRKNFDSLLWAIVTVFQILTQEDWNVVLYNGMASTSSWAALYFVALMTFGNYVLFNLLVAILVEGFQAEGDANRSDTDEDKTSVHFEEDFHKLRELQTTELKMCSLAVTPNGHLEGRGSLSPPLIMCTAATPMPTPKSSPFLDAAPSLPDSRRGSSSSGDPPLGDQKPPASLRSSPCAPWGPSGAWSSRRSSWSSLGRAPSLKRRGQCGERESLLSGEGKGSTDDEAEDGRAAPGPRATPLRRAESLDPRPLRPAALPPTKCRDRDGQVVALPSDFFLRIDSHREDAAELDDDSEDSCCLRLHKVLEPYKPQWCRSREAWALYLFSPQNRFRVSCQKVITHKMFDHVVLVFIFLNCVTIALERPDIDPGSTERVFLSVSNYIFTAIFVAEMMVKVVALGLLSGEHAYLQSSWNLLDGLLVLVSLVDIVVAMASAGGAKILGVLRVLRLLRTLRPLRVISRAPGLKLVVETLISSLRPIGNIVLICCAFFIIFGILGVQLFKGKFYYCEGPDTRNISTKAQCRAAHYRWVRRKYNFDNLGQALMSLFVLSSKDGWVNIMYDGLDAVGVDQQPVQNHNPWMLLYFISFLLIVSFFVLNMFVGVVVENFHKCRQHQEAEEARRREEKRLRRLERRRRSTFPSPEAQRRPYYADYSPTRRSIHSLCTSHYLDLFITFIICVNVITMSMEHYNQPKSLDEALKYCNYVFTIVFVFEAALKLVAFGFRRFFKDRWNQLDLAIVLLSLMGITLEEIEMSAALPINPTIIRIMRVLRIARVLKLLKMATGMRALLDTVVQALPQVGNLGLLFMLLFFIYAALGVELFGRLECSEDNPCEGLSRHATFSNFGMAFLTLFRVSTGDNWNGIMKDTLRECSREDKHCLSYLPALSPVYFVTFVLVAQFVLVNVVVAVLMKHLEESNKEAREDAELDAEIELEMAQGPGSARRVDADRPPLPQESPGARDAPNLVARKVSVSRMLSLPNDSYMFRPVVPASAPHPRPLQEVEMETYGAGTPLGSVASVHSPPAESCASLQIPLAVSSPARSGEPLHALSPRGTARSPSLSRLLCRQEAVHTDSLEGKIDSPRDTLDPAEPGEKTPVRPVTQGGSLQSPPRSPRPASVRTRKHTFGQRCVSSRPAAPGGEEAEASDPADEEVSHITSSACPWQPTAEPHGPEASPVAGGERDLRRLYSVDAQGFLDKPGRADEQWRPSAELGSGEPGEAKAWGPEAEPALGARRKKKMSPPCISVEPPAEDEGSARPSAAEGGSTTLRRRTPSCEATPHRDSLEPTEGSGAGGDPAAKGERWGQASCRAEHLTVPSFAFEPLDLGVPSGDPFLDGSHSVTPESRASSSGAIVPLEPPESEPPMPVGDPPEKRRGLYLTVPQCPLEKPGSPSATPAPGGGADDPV
Protocol: To further characterize compounds NMP-4, NMP-7 and NMP-144, we investigated the concentration dependence of their action on Cav3.2, the major T-type calcium channel subtype implicated in the afferent pain pathway (Figure 2B, C).
To determine whether these compounds also affected inactivated channels, we recorded steady-state inactivation curves prior and after application of NMP-4, NMP-7 or NMP-144.
Whole-cell currents were recorded from tsa-201 cells 2-4 days after transfection. The external recording solution contained (in mM): BaCl2 (20), MgCl2 (1), HEPES (10), TEA-Cl (40), CsCl (65), d-glucose (10) and pH 7.2 adjusted with TEA-OH. The internal pipette solution was composed of (in mM) Cs-methanesulfonate (108), MgCl2 (4), EGTA (9), HEPES (9) and pH 7.2 adjusted with CsOH. The internal solution was supplemented with 0.6 mM GTP (sodium salt) and 2 mM ATP (tris salt), which were added directly to the internal solution immediately prior to use. Pipettes with a resistance of 2~5 MΩ when filled with internal solution were used for recording. Currents were elicited from a holding potential of -100 mV and were measured by conventional whole-cell patch clamp using an Axopatch 200B amplifier in combination with Clampex 9.2 software (Axon Instruments, Foster City, CA). Data were filtered at 1 kHz (8-pole Bessel) and digitized at 10 kHz with a Digidata 1320 (Axon Instruments, Foster City, CA). Series resistance were compensated by 85% in all experiments. An online P/4 programme was used to subtract the leak currents. Drugs were dissolved in DMSO at the following stock concentrations: 20 mM for NMP-4 and NMP-7, and 10 mM for NMP-139, NMP-140, NMP-141 and NMP-144. Prior to the experiment, drugs were diluted into external recording solution with a final DMSO concentration no higher than 0.3%. DMSO was also included in the control solution. Drug delivery was controlled by a Valvelink8.2 fast perfusion system (Automate Scientific Inc., Berkeley, CA). The perfusion tip was positioned a few hundred microns from the cell and kept as constant as possible throughout the experiments. Electrophysiological data were analyzed using Clampfit 9.2 (Axon Instruments, Foster City, CA) and GraphPad Prism 5 software (GraphPad Software Inc., San Diego, CA). […] Steady-state inactivation curves were fitted using the Boltzmann equation: I = 1/(1 + e ^(V-Vh)/k), where Vh is the half inactivating potential and k is the slope factor.

locomotor activity = assay: Open-field test; format: in vivo, mice; conditions: 1 mg/kg i.p., 30 minutes before the experiment; data not shown
Text: We then delivered NMP-7 via the intrperitoneal route.

Human CB1 = Human CB1 (Homo sapiens, UniProt P21554); assay: GTPγ[35S] functional assay, CHO cell membrane extracts; parameters: Emax: dose or concentration left out as unconfirmed
Human CB1, sequence (P21554 whole entry): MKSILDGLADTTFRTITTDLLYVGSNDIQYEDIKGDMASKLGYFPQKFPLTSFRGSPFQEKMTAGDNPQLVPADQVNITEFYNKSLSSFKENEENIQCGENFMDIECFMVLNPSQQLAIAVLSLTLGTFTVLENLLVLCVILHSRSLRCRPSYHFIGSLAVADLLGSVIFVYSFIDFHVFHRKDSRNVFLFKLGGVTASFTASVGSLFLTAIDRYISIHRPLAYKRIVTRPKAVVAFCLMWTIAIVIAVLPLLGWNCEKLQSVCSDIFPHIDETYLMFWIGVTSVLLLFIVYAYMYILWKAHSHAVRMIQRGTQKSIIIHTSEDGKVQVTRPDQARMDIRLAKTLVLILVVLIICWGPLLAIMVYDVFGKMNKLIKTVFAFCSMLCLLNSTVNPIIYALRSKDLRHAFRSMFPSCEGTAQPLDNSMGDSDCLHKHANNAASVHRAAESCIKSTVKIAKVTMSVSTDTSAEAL
Protocol: Functional activity was evaluated using GTPγ[^35S] assay in CHO cell membrane extracts expressing recombinant human CB1 or CB2 receptors as we previously described [51]. Compounds were solubilized in 100% DMSO at a concentration of 10 mM within 4 hours of the first testing session. A predilution for the dose response curve was performed in 100% DMSO and then diluted 100 fold in assay buffer at a concentration 2 fold higher than the concentration to be tested. […] Membranes were mixed with GDP diluted in assay buffer to give 30 μM solution (volume:volume) and incubated for at least 15 min on ice. In parallel, GTPγ[^35S] (GE Healthcare, Catalogue number SJ1308) were mixed with the beads (PVT-WGA (GE Healthcare, RPNQ001)), diluted in assay buffer at 50 mg/ml (0.5 mg/10 μl) (volume:volume) just before starting the reaction. The following reagents were successively added in the wells of an Optiplate (Perkin Elmer): 50 μl of ligand, 20 μl of the membranes:GDP mix, 10 μl of assay buffer for agonist testing, and 20 μl of the GTPγ[^35S]:beads mix. The plates were covered with a topseal, shacked on an orbital shaker for 2 min, and then incubated for 1 hour at room temperature. Then the plates were centrifuged for 10 min at 2000 rpm and counted for 1 min/well with a PerkinElmer TopCount reader. […] For replicate determinations, the maximum variability tolerated in the test was of ± 20% around the average of the replicates.

rat 5-HT2C = target: T3, rat 5-HT2C (Rattus norvegicus, UniProt P08909); assay: Primary radioligand competitive binding assay, [3H]mesulergine; conditions: ligand 10 μM, HEK293 cells
T3 construct: expressed in transfected cells; host or cells: HEK293 (Flp-In system, pcDNA5.0FRT)
T3 sequence (P08909 33-460): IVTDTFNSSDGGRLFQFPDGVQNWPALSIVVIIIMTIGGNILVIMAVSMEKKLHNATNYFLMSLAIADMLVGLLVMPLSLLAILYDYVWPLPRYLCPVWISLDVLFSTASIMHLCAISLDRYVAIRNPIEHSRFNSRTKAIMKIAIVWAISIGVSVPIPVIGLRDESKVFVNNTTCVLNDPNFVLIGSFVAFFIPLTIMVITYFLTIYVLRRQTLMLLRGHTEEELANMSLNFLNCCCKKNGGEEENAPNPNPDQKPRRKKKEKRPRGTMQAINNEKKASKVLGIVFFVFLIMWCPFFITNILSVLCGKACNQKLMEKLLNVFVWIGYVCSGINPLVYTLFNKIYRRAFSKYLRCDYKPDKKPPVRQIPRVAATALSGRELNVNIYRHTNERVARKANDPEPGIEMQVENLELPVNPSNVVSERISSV
Protocol: (§1) HEK293 cells and CHO cells were used in the radioligand binding assay while tsA-201 cells were used in the electrophysiological study. Human CB2, human 5-HT2A, rat 5-HT2C used in the binding studies were cloned into pcDNA5.0FRT and cell lines were made using the FlpIn system from Invitrogen. tsA-201 cell culture and transient calcium channel transfection were performed as described previously. In brief, tsA-201 cells were transfected using the calcium phosphate method. Cav3.1, 3.2 and 3.3 α1 subunits were transfected individually with yellow fluorescent protein as a transfection marker.
(§2) Radioligand binding data were obtained using National Institute of Mental Health's Psychoactive Drug Screening Program (NIMH/PDSP) using the same protocol described for CB1 and CB2 binding experiments. Transfected HEK293 (human 5-HT2A or rat 5-HT2C) cells were used. The radioligands were [^3H]ketanserin (0.5 nM) and [^3H]mesulergine (0.5 nM) for respectively 5-HT2A and 5-HT2C experiments. Non-specific binding was determined in the presence of 10 μM chlorpromazine for both 5-HT2A and 5-HT2C binding experiments. Cells were harvested and homogenized in 50 mM Tris HCl, 10 mM MgCl2, 0.1 mM EDTA, pH 7.4. Incubation of radioreceptor binding assay mixtures was 1.5 hours at room temperature in the dark.

human 5-HT2A = target: T4, human 5-HT2A (Homo sapiens, UniProt P28223); assay: Primary radioligand competitive binding assay, [3H]ketanserin; conditions: ligand 10 μM, HEK293 cells
T4 construct: expressed in transfected cells; host or cells: HEK293 (Flp-In system, pcDNA5.0FRT)
T4 sequence (P28223 whole entry): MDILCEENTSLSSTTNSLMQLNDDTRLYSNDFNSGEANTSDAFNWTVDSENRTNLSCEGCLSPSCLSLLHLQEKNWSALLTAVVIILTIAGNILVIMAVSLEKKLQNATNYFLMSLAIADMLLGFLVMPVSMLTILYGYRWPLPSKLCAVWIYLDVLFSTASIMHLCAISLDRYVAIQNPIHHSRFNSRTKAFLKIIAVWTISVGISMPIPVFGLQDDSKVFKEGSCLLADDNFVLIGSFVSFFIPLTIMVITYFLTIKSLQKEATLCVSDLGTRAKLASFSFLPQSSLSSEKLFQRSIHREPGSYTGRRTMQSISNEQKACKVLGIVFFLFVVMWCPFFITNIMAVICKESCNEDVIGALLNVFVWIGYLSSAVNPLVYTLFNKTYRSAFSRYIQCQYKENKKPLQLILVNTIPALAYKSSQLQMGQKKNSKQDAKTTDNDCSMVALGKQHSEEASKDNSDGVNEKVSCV
Protocol: as §1, §2

Human CB2 [2] = target: T1, Human CB2; assay: Radioligand competitive binding, [3H]CP55940, HEK293 cells; parameters: expressed in transfected cells; conditions: NA: not active at 1 μM; read-out: Mean Ki Human CB2
Protocol: as §1
(§3) CB1 and CB2 radioligand binding data were obtained using National Institute of Mental Health (NIMH) Psychoactive Drug Screening Program (PDSP) resources as described earlier. Compounds were screened in a competitive binding experiment using, respectively, membrane fractions prepared from rat brain homogenate expressing CB1 receptor and HEK293 cells expressing the human CB2 receptor. Experiments were conducted at a range of different concentrations and in duplicate. The competition binding experiment for CB1 and CB2 was performed in 96 well plates containing Standard Binding Buffer (50 mM Tris HCl, 1 mM EDTA, 3 mM MgCl2, 5 mg/ml fatty acid-free BSA, pH 7.4). The radioligand was [^3H]CP55940, and the reference compound was CP55940. A solution of the compound to be tested was prepared as a 1 mg/ml stock in DMSO and then diluted in Standard Binding Buffer by serial dilution. Radioligand was diluted to five times the assay concentration in Standard Binding Buffer. Aliquots (50 μl) of radioligand were dispensed into the wells of a 96-well plate containing 100 μl of Standard Binding Buffer. Then, duplicate 50-μl aliquots of the test and reference compound dilutions were added. Finally, crude membrane fractions of cells were resuspended in 3 ml of chilled Standard Binding Buffer and homogenized by several passages through a 26 gauge needle, then 50 μl were dispensed into each well. The 250-μl reactions were incubated at room temperature for 1.5 hours, and then harvested by rapid filtration onto Whatman GF/B glass fiber filters pre-soaked with 0.3% polyethyleneimine using a 96-well Brandel harverster. Four rapid 500-μl washes were performed. Filters were placed in 6-ml scintillation tubes and allowed to dry overnight. Bound radioactivity was harvested onto 0.3% polyethyleneimine-treated, 96-well filter mats using a 96-well Filtermate harvester. The filter mats were dried, then scintillant was melted onto the filters and the radioactivity retained on the filters counted in a Microbeta scintillation counter. Raw data (dpm) representing total radioligand binding (i.e., specific + non-specific binding) were plotted as a function of the logarithm of the molar concentration of the competitor (i.e., test or reference compound). Non-linear regression of the normalized (i.e., percent radioligand binding compared to that observed in the absence of test or reference compound) raw data was performed in Prism 4.0 (GraphPad Software) using the built-in three parameter logistic model describing ligand competition binding to radioligand-labeled sites: y = bottom + [(top-bottom)/(1 + 10 × -logIC50)] where bottom equals the residual radioligand binding measured in the presence of 10 μM reference compound (i.e., non-specific binding) and top equals the total radioligand binding observed in the absence of competitor. The log IC50 (i.e., the log of the ligand concentration that reduces radioligand binding by 50%) is thus estimated from the data and used to obtain the Ki by applying the Cheng-Prusoff approximation: Ki = IC50/(1 + [ligand]/KD) where [ligand] equals the assay radioligand concentration and KD equals the affinity constant of the radioligand for the target receptor.

Rat CB1 = target: T5, Rat CB1 (Rattus norvegicus, UniProt P20272); assay: Radioligand competitive binding, [3H]CP55940, rat brain homogenate; conditions: ligand 10 μM; rat brain homogenates
T5 construct: membrane fractions prepared from rat brain homogenate expressing CB1 receptor; from tissue; host or cells: rat brain homogenate
T5 sequence (P20272 whole entry): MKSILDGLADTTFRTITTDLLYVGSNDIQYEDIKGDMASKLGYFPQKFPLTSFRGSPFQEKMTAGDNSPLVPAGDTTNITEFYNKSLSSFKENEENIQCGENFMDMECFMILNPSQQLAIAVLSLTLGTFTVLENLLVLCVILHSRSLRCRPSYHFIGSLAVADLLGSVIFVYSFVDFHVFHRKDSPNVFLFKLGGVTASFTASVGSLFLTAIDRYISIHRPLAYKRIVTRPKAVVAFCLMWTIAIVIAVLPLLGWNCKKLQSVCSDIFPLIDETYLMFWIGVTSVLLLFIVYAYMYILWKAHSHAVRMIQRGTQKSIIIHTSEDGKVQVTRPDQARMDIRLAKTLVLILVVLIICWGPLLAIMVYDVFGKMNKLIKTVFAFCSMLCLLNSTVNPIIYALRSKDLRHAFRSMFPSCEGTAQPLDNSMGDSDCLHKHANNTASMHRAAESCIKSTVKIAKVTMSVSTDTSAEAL
Protocol: as §3

[3] = test system: T-type calcium channels (Cav3.1, Cav3.2, Cav3.3); assay: Whole-cell patch-clamp screen on recombinant T-type calcium channels in tsA-201 cells; format: cell-based, human; conditions: 10 μM; held at -100 mV, pulse to -20 mV; barium current; three Cav3 isoforms
Text: Studies have shown that several endocannabinoids and phytocannabinoids have direct inhibitory actions on T-type voltage-gated calcium channels. To determine whether the NMP compounds produced a similar effect, we characterized their actions on transiently expressed T-type calcium channels via whole-cell patch-clamp recordings. Cells were held at -100 mV and barium current was evoked by a depolarizing pulse to -20 mV.
as §1, with “Cav3.1, 3.2 and 3.3 α1 subunits were transfected individually with yellow fluorescent protein as a transfection marker.” left out
Whole-cell currents were recorded from tsa-201 cells 2-4 days after transfection. […] Currents were elicited from a holding potential of -100 mV and were measured by conventional whole-cell patch clamp using an Axopatch 200B amplifier in combination with Clampex 9.2 software (Axon Instruments, Foster City, CA). […] Electrophysiological data were analyzed using Clampfit 9.2 (Axon Instruments, Foster City, CA) and GraphPad Prism 5 software (GraphPad Software Inc., San Diego, CA). […]

[4] = 1 mg/kg i.p., 30 min before behavioural assessment
[5] = i.t., 10 min prior, NMP-4 1-10 μg/i.t., NMP-144 0.1-1 μg/i.t., NMP-7 3-30 μg/i.t., mice

| SMILES | inhibition of the pain responses in phase 1 (formalin-induced pain; [4]) [%] | inhibition of the pain responses in phase 2 (formalin-induced pain; [4]) [%] | effect on first phase of formalin-induced nociception (formalin-induced pain; i.pl., co-injected with formalin, NMP-4 and NMP-144 0.03-3 μg/paw, NMP-7 0.3-3 μg/i.pl.) | reduction of pain response time, first (neurogenic) phase (formalin-induced pain; [5]) | reduction of pain response time, second (inflammatory) phase (formalin-induced pain; [5]) | EC50 (Human CB2 [1]) [nM] | Emax (Human CB2 [1]; read-out: GTPγ[35S] functional assays Human CB2 Emax) [%] | hyperpolarizing shift in the half inactivation potential of Cav3.2 channels (Cav3.2) [mV] | half-inactivation potential after treatment with drug (Cav3.2; n = 4) [mV] | locomotor activity in the open-field test (locomotor activity) | EC50 (Human CB1) [nM] | Emax (Human CB1; read-out: GTPγ[35S] functional assays Human CB1 Emax) [%] | Rat 5-HT2C (%) primary radioligand competitive binding (rat 5-HT2C) [%] | Human 5-HT2A (%) primary radioligand competitive binding (human 5-HT2A) [%] | Ki (Human CB2 [2]) [nM] | Rat CB1 (%) primary radioligand competitive binding (Rat CB1) [%] | inhibition of T-type current [3] [%] |
| --- | --- | --- | --- | --- | --- | --- | --- | --- | --- | --- | --- | --- | --- | --- | --- | --- | --- |
| CCCCCn1c2ccccc2c2cc(C(=O)N3CCCCC3)ccc21 [NMP-7] | 92 ± 7 | 94 ± 6 | able to inhibit the first phase | significant inhibition | significant inhibition | 10.5 ± 1.8 | 30.8 | 13 | -63.3 ± 3.5 | did not alter locomotor activity | 96.9 ± 11.9 | 73.6 | – | – | – | – | – |
| CCCCCn1c2ccccc2c2cc(C(=O)NCCc3ccc(Cl)cc3)ccc21 [NMP-139] | – | – | – | – | – | – | – | – | – | – | – | – | -7.8 | 7.7 | 3590 ± 424 | 46.3 | < 20 |
